In patent US20060246115A1, “Nutritional products for ameliorating symptoms of rheumatoid arthritis” (priority 2005, published 2006):

Columns and labels:
[1] = test system: type II collagen-immunized mice (collagen-induced arthritis); assay: Experiment 1: collagen-induced arthritis (CIA) in mice, clinical assessment; assay type: in vivo; conditions: prednisolone 5 mg/kg i.p. daily
Experimental: Tests are conducted under a model of rheumatoid arthritis in mice (collagen-induced arthritis or CIA) that shares some similarities with the human disease. The tests evaluate the effect of plant extracts and Oxepa®, on the severity of CIA and concentration of inflammatory mediators.
Seven week-old DBA/1J (H-2^q) male mice (n=105) are purchased from Harlan (Barcelona, Spain) and housed in plastic cages (5 animals each) with free access to food and water.
The procedure followed for the animal immunization is carried out by injecting 100 μl of bovine collagen II emulsion (type II collagen in complete Freund's adjuvant) intradermically in the base of the tail. Collagen is supplied by Chondrex (MDbiosciences, Switzerland) and the emulsion is prepared as follows: collagen is dissolved in 0.05M acetic acid (2 mg/ml) overnight at 4° C. with constant, but gentle stirring and emulsified with Freund's adjuvant (1:1). The Freund's adjuvant is added drop by drop while mixing in a high-speed homogenisator (ultraturrax) at 27,000 rpm. […]
Mice are assessed daily for clinical symptoms of inflammation, and their weights are measured. […]
For the statistical analysis, outliers are removed if they differed from the mean more than three standard deviations. Homogeneity of variances is analysed by Levene's test. […] The classification of arthritic index into categories is analysed by Chi-squared.

[2] = test system: antibodies against type II collagen (IgG2a); assay: Experiment 1: anti-CII IgG2a ELISA in serum and joint homogenates; assay type: in vivo, mice
Experimental: Blood samples are taken from the retroorbital sinus under light anesthesia and the animals are immediately sacrificed by cervical dislocation. Fore and hind limbs are dissected and frozen at −80° C. Blood samples are allowed to cloth for 1 hour at room temperature and the serum is separated from blood cells by centrifugation at 6,500 g for 10 min.
(§1) The following parameters are measured in joint homogenates: antibodies against type II collagen (IgG2a); proinflammatory cytokines: IL-1β and IL-6; counter-regulatory cytokines: IL-10; and Matrix metalloproteinases: MMP-9. Antibodies against type II collagen (IgG2a) are also measured in serum.
Specific anti-CII—IgG2a in joints and serum of mice is determined by ELISA. Briefly, 96-well microtiter plates are coated overnight with CII at 4° C., washed with 0.05% Tween-PBS, blocked with 1% bovine serum albumin-PBS for 2 h at room temperature and then washed again. Samples are diluted with PBS before assay: 1:16000 for serum and 1:50 for homogenized joints. Fifty (50) μL of standards (type II collagen Ab-2, clone 2B1.5, NeoMarkers) from 0 to 500 ng/ml and samples are added to each well in duplicate, and incubated 2 h at 37° C. […] Finally the absorbance is measured in a microplate reader at 405 nm.

[3] = test system: IL-1β; assay: Experiment 1: IL-1β ELISA in joint homogenates; assay type: in vivo, mice
Experimental: as §1
Cytokines and MMP-9 in homogenized joints are measured by ELISA using commercial kits from BIOTRAK (Amersham Pharmacia Biotech) following the supplier instructions and using joint homogenates without any further dilution.

[4] = test system: IL-6; assay: Experiment 1: IL-6 ELISA in joint homogenates; assay type: in vivo, mice
Experimental: (§2) The following parameters are measured in joint homogenates: antibodies against type II collagen (IgG2a); proinflammatory cytokines: IL-1β and IL-6; counter-regulatory cytokines: IL-10; and Matrix metalloproteinases: MMP-9. Antibodies against type II collagen (IgG2a) are also measured in serum. Cytokines and MMP-9 in homogenized joints are measured by ELISA using commercial kits from BIOTRAK (Amersham Pharmacia Biotech) following the supplier instructions and using joint homogenates without any further dilution.

[5] = test system: MMP-9; assay: Experiment 1: MMP-9 ELISA in joint homogenates; assay type: in vivo, mice
Experimental: as §2

[6] = test system: type II collagen-immunized mice (collagen-induced arthritis); assay: Experiment 3: CIA in mice, arthritis index, onset and incidence; assay type: in vivo; conditions: prednisolone i.p. daily
[7] = test system: histological structure of cartilage and bone of arthritic joints; assay: Experiment 3: histological scoring of joints of CIA mice (H&E); assay type: in vivo
From the text: Experiment 1 is repeated and the test animals evaluated for various histological changes associated with each control or treatment group. The purpose of this experiment is to show the effect of Boswellia serrata and Phlebodium decumanum extracts and Oxepa® on the histological structure of cartilage and bone in the same experimental model as described above. After again completing the above-described model, the mice are sacrificed 10 days after the arthritis onset by cervical dislocation under light anesthesia. Fore and hind limbs are dissected and the skin removed. Each is then immersed in 4% buffered formaldehyde for 2-3 days. Afterwards, each is treated with decalcificant solution for 2 hours and treated again for 60-90 minutes more. The samples are dehydrated with alcohol solutions of increasing concentrations, embedded in paraffin, cut into 4 μm slices and stain with hematoxilin and eosin (H&E). The following joints are thereafter studied: elbow, radio-cubito-carpo (wrist), carpo-metacarpo and metacarpo-phalange in fore limbs, and knee, tibio-tarso (ankle), tarso-metatarso, metatarso-phalange in hind limbs. Typical alterations of arthritic joints are considered, such as synovial inflammation, pannus formation, cartilage damage and bone destruction, and are scored on a nominal scale from 0 to 3. The scale is defined for each parameter as follows: Synovial inflammation: 0=Absence: normal synovial-periarticular tissue; 1=mild: infiltration of inflammatory cells in the periarticular tissue; 2=moderated: cell infiltration and moderated edema; 3=severe: marked cell infiltration and edema. Pannus formation: None (0), mild (1), moderate (2) or severe (3) proliferation of synovial tissue at the synovium-cartilage junction. Cartilage damage: 0=Absence: normal cartilage; 1=mild: damage of Zone I (external) with slight loss of chondrocytes and/or collagen disruption; 2=moderated: damage of Zone II (internal) with moderate loss of chondrocytes and/or collagen disruption: 3=severe: severe damage of all Zones with multifocal losses of chondrocytes and/or collagen disruption. Subchondral bone destruction: 0=Absence: normal bone; 1=mild: some areas of cortical degradation, few osteoclasts; 2=moderated: clear bone degradation with moderate medular damage, more osteoclasts; 3=severe: intense cortical and medular bone destruction, numerous osteoclasts. The scores of all joints are summed to obtain a general score for each histological parameter and animal. The histopathologist is not aware of the study groups during the evaluation of the samples. Homogeneity of variances are tested by the Bartelett's test. If homogeneity of variances is met, data are analysed by one-way ANOVA. If variances are not homogeneous, non-parametric procedures are used. The analysis is done by the Graph Pad Prism Software version 4.

[8] = individual mice, sum of scores (0-3) of all joints

Compound: C[C@]12C=CC(=O)C=C1CC[C@@H]1[C@@H]2[C@@H](O)C[C@@]2(C)[C@H]1CC[C@]2(O)C(=O)CO [prednisolone]
- development of arthritis [1]: do not develop arthritis
- IgG2a levels in joint homogenates versus control ([2]; joint homogenates): significantly lower
- IgG2a levels in serum versus control ([2]; serum): significantly lower
- content of IL-1β in joint homogenates versus control [3]: lower
- content of IL-6 in joint homogenates versus control [4]: lower
- content of MMP-9 in joint homogenates versus control [5]: lower
- development of arthritis [6]: do not develop arthritis
- Bone score [7, 8]: 0
- Cartilage score [7, 8]: 0
- Inflammation score [7, 8]: 0
- Pannus score [7, 8]: 0
- joint appearance, histological slide ([7]; knee, left hind limb, H&E, FIG. 9): normal joint
